Tests used:
Type in all cases: functional
Escherichia coli = test: Antibacterial activity against Escherichia coli ATCC 25922 by TLC bioautographic test
Micrococcus luteus = test: Antibacterial activity against Micrococcus luteus ATCC 9341 by TLC bioautographic test
Bacillus subtilis = test: Antibacterial activity against Bacillus subtilis ATCC […] by TLC bioautographic test

Compound	Activity (Escherichia coli)	Activity (Micrococcus luteus)	Activity (Bacillus subtilis)
CC1=C(CC/C(C)=C/CC/C(=C/C[C@H]2OC(=O)CC2CO)CO)C(C)(C)CCC1 (stereo partly drawn)	1 µg	5 µg	–
CC1=C(CC/C(C)=C/CC/C(C=O)=C\C[C@H]2OC(=O)C=C2CO)C(C)(C)CCC1	–	4 µg	4 µg
CC(=O)OC/C(=C\C[C@H]1OC(=O)CC1CO)CC/C=C(\C)CCC1=C(C)CCCC1(C)C (stereo partly drawn)	–	3 µg	11 µg
CC(=O)OC/C(=C\C[C@H]1OC(=O)C=C1CO)CC/C=C(\C)CCC1=C(C)CCCC1(C)C	–	8 µg	2 µg

From ChEMBL document CHEMBL1159004, “Four new antibacterial sesterterpenes from a marine sponge of the genus Luffariella” (1992)
